How the values were obtained:
[1] = test system: male broiler chicks; test: 0.2% SMZ in starter ration during genetic selection phase of broilerization, from one week of age; format: in vivo, chicken
From the text: FIG. 4 depicts a bar graph showing the testes response resulting from the “genetic selection” phase of broilerization (see FIG. 1) plus 0.2% sulfamethazine (SMZ) added to a standard starter ration at one week of age.
FIGS. 5A and 5B depict graphs showing weekly levels of plasma luteinizing hormone (LH; 5A) and follicle stimulating hormone (FSH; 5B) in male broiler chicks fed a diet with 0.2% SMZ beginning at one week of age (*=p[…]0.05).
(§1) Blood samples were taken starting at day of SMZ administration and weekly following initiation of the treatment.

[2] = test system: male broiler chicks; test: Daily plasma LH immediately following dietary administration of 0.2% SMZ, from one week of age; format: in vivo, chicken; conditions: 0.2% SMZ diet from one week of age, FIG. 6
From the text: FIG. 6 depicts a graph showing daily levels of LH immediately following dietary administration of 0.2% SMZ, beginning at one week of age (*=p<0.05).
as §1

[3] = test system: broiler breeders; test: 0.2% SMZ in grower diet during photoperiodic phase of broilerization (weeks 20-28, LD 14:10); format: in vivo, chicken; conditions: p≦0.05
From the text: FIGS. 7A and 7B depict bar graphs showing testis weight response (7A) and plasma LH (7B) resulting from the “photoperiodic” phase of broilerization plus 0.2% SMZ added to a grower diet from 20 to 28 weeks of age. Testes and blood were sampled at 28 weeks of age. Photoperiod=LD 14:10.
FIGS. 8A and 8B show plasma FSH (8A) and testosterone (8B) resulting from blood samples taken as described with respect to FIGS. 7A and 7B.

[4] = test system: broiler chicks; test: 0.2% SMZ in standard broiler ration, one to four weeks of age, continuous light versus LD 8:16; format: in vivo, chicken; conditions: 1-4 weeks of age
Protocol: FIG. 9 depicts a bar graph showing testes weight following 0.2% SMZ (1-4 weeks of age) in chicks exposed to LD 24:0 or LD 8:16.
In a further study using broiler chicks, SMZ at 0.2% was added to a standard broiler ration and fed to chicks from one to four weeks of age. One group was raised under continuous light while a second group was exposed to a photoperiod of LD 8:16. […] Although food intake was not measured in this experiment, body weight was taken at the beginning and end of the study. […] Sulfamethazine has a stimulatory effect upon testes growth when chicks are exposed to a long photoperiod. One possible interpretation is that SMZ appears to facilitate or amplify the stimulatory effect of long-day light on gonadal development in male chicks.

[5] = test system: broiler chicks; conditions: cited from earlier work
[6] = test system: chicks; conditions: ICV administration to chicks; cited from earlier work

Molecule | plasma luteinizing hormone (LH), weekly levels ([1]; 0.2% SMZ diet from one week of age, weekly blood samples, FIG. 5A) | plasma follicle stimulating hormone (FSH), weekly levels ([1]; 0.2% SMZ diet from one week of age, weekly blood samples, FIG. 5B) | rate of testes growth ([1]; 0.2% SMZ in starter ration from one week of age, FIG. 4) | semen production ([1]; 0.2% SMZ in starter ration, by nine weeks of age) | time until plasma LH was significantly elevated after consuming feed containing SMZ [2] | plasma LH ([3]; 0.2% SMZ weeks 20-28, LD 14:10, blood at week 28, FIG. 7B) | plasma FSH ([3]; 0.2% SMZ weeks 20-28, LD 14:10, blood at week 28, FIG. 8A) | plasma testosterone ([3]; 0.2% SMZ weeks 20-28, LD 14:10, blood at week 28, FIG. 8B) | testis weight versus controls ([3]; 0.2% SMZ weeks 20-28, LD 14:10, sampled at 28 weeks, FIG. 7A) | testes growth ([4]; continuous light (LD 24:0), p≦0.05, FIG. 9) | progonadal effects (testes weight) ([4]; short photoperiod LD 8:16, FIG. 9) | body weight, long-day versus short-day SMZ treated groups ([4]; weighed at beginning and end of study) | plasma gonadotropins ([5]; broiler chicks) | testes development ([5]; broiler chicks) | thyroid hormone ([5]; broiler chicks) | number of immuno-stained neuropeptide Y (NPY) neurons ([5]; broiler chicks, mediobasal hypothalamus and infundibular nucleus (IN)) | comb coloration (side effect) ([5]; chronic use of SMZ) | size of comb and testes (side effect) ([5]; chronic use of SMZ) | growth of the testes [6]
Cc1cc(C)nc(NS(=O)(=O)c2ccc(N)cc2)n1 [SMZ, Sulfamethazine] | significantly increased | significantly increased | significantly increased | produced viable semen | ≤ 48 h | significantly elevated | significantly elevated | significantly elevated | significantly heavier than controls | significantly elevated | markedly attenuated | No significant difference | increases | significantly increases | transiently suppresses | increases | marked red coloration of the comb | increased size of both comb and testes | –
neuropeptide Y [NPY] | – | – | – | – | – | – | – | – | – | – | – | – | – | – | – | – | – | – | stimulates

From patent US6573254B1, “Method for the stimulation of sperm production and gonadal development in animals” (University of Maryland, priority 1998, dated 2003)
